The source made the active and inactive calls. The rule behind the calls is not given here.
Assays:
MV4-11 [1] = experiment: Cell cycle arrest in human MV4-11 cells assessed as accumulation of cells at G1-phase at 0.04 uM measured after 24 hrs by propidium iodide staining based flow cytometry (reference value: 61.42%); format: functional
[2] = Toxicity in human COLO 205 cells xenografted CD1 nu/nu mouse assessed as decrease in red cell mass at 50 mg/kg, po administered daily via gavage for 56 days and measured on day 41 to 69 by hematological analysis; format: organism-based; settings: in vivo, 1344 h, time 41-69 day
MDA-MB-231 [3] = experiment: Cell cycle arrest in human MDA-MB-231 cells assessed as accumulation of cells at G2/M-phase at 0.16 uM measured after 24 hrs by propidium iodide staining based flow cytometry (reference value: 11.46%); format: functional
MDA-MB-231 [4] = experiment: Cell cycle arrest in human MDA-MB-231 cells assessed as accumulation of cells at G1-phase at 0.16 uM measured after 24 hrs by propidium iodide staining based flow cytometry (reference value: 50.27%); format: functional
Mus musculus [5] = species on record: Mus musculus; settings: CD1, dose 50.0 mg/kg, route po, time 22.0 day
MV4-11 [6] = experiment: Cell cycle arrest in human MV4-11 cells assessed as accumulation of cells at S-phase at 0.32 uM measured after 24 hrs by propidium iodide staining based flow cytometry (reference value: 23.35%); format: functional
[7] = Toxicity in human COLO 205 cells xenografted CD1 nu/nu mouse assessed as decrease in lymphocyte count at 50 mg/kg, po administered daily via gavage for 56 days and measured on day 41 to 69 by hematological analysis; format: organism-based; settings: in vivo, 1344 h, time 41-69 day
[8] = Toxicity in human COLO 205 cells xenografted CD1 nu/nu mouse assessed as change in jejunum histology at 50 mg/kg, po administered daily via gavage for 2 cycles of 3 weeks on/1 week rest and measured on day 41 to 69 by histopathological analysis; format: organism-based; settings: in vivo, time 41-69 day
COLO 205 [9] = settings: Mus musculus, CD1, dose 50.0 mg/kg, route po
[10] = Toxicity in human COLO 205 cells xenografted CD1 nu/nu mouse assessed as body weight loss at 50 mg/kg, po administered daily via gavage for 2 cycles of 3 weeks on/1 week rest; format: organism-based; settings: in vivo
COLO 205 [11] = settings: Homo sapiens, dose 50.0 mg/kg, route po, time > 3.0 weeks
Description: Antitumor activity against human COLO 205 cells xenografted in CD1 nu/nu mouse assessed as tumor growth inhibition at 50 mg/kg, po administered daily via gavage for 2 cycles of over 3 weeks on/1 week rest

[12] = Plasma concentration at steady state in human COLO 205 cells xenografted po dosed CD1 nu/nu mouse; format: ADME, organism-based; settings: in vivo
Mus musculus [13] = species on record: Mus musculus; settings: CD1, dose 50.0 mg/kg, route po, time 22.0 day; remark: listed apart in the source
[14] = biological target: Receptor-type tyrosine-protein kinase FLT3 (Homo sapiens) (UniProt P36888); settings: Sf21, dose 200.0 nM
Sequence of Receptor-type tyrosine-protein kinase FLT3 (Homo sapiens) (P36888 whole entry): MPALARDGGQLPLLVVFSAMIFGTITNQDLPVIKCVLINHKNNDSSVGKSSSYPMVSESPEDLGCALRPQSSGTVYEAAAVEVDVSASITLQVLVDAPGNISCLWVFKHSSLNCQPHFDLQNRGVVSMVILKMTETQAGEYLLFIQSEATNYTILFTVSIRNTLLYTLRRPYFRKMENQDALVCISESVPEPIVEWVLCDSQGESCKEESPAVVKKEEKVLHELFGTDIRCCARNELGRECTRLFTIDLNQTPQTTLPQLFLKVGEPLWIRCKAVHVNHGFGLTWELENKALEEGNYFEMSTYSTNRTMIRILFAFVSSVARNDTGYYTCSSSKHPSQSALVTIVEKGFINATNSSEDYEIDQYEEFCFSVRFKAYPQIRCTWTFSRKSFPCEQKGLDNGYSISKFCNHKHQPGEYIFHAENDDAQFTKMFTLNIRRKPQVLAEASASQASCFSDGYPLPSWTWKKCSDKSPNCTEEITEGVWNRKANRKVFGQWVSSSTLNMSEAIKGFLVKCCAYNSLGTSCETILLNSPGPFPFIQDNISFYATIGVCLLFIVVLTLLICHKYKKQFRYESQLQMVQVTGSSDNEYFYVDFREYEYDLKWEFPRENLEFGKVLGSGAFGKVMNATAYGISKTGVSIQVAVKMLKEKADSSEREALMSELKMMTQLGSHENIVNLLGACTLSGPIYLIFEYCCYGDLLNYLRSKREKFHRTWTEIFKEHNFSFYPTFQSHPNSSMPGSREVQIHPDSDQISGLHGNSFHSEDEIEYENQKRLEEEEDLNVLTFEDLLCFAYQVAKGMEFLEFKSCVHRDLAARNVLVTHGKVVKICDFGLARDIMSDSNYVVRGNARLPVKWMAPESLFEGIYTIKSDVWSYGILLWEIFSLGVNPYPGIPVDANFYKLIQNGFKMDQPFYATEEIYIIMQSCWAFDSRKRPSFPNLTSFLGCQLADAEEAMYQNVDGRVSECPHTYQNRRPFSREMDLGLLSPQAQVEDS
Description: Inhibition of recombinant human N-terminal GST-tagged FLT3 (564 to end residues) expressed in baculovirus infected Sf21 cells at 200 nM using Abltide as substrate relative to control

MV4-11 [15] = experiment: Cell cycle arrest in human MV4-11 cells assessed as accumulation of cells at S-phase at 5 uM measured after 24 hrs by propidium iodide staining based flow cytometry (reference value: 23.35%); format: functional
COLO 205 [16] = settings: Homo sapiens, dose 50.0 mg/kg, route po, time 3.0 weeks
Description: Antitumor activity against human COLO 205 cells xenografted in CD1 nu/nu mouse assessed as tumor growth inhibition at 50 mg/kg, po administered daily via gavage for 2 cycles of 3 weeks on/1 week rest

[17] = Inhibition of recombinant human full-length N-terminal 6His-tagged/beta-subunit N-terminal GST tagged CK2 expressed in Sf21 insect cells at 200 nM using casein kinase 2 substrate peptide relative to control; settings: condition cancer
[18] = Toxicity in human COLO 205 cells xenografted CD1 nu/nu mouse assessed as change in cecum histology at 50 mg/kg, po administered daily via gavage for 2 cycles of 3 weeks on/1 week rest and measured on day 41 to 69 by histopathological analysis; format: organism-based; settings: in vivo, time 41-69 day
[19] = biological target: Cyclin-dependent kinase 5/CDK5 activator 1 (Homo sapiens) (UniProt Q00535+Q15078); settings: Sf21, dose 200.0 nM
Sequence of Cyclin-dependent kinase 5/CDK5 activator 1 (Homo sapiens) (Q00535 whole entry): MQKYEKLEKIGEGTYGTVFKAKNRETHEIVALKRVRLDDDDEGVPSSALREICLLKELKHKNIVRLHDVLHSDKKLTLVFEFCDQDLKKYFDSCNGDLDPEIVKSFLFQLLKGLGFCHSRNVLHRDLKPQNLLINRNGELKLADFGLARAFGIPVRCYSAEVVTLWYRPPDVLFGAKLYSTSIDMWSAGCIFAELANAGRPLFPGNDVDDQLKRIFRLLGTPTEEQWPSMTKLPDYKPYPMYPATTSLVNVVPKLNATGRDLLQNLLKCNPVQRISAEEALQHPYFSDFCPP
Sequence of Cyclin-dependent kinase 5/CDK5 activator 1 (Homo sapiens) (Q15078 99-307 partner limits assumed): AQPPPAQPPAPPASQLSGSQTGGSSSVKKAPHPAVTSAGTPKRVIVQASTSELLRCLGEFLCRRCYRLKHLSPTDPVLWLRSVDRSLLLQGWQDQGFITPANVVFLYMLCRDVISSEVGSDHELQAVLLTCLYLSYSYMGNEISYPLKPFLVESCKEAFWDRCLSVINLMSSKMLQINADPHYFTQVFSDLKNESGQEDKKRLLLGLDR
Description: Inhibition of recombinant human full-length N-terminal His6-tagged cdk5/N-terminal GST-tagged p35 expressed in baculovirus infected Sf21 cells at 200 nM using histone H1 as substrate relative to control

MCF-10A = experiment: Cell cycle arrest in human MCF-10A cells assessed as accumulation of cells at G1 phase by measuring increase in 2N DNA content measured after 24 hrs by propidium iodide staining based laser-scanning fluorescence cytometry; format: toxicity
MV4-11 [20] = experiment: Cell cycle arrest in human MV4-11 cells assessed as accumulation of cells at G2/M-phase at 5 uM measured after 24 hrs by propidium iodide staining based flow cytometry (reference value: 15.23%); format: functional
COLO 205 [21] = settings: Homo sapiens, dose 50.0 mg/kg, route po, time 56.0 day
Mus musculus [22] = species on record: Mus musculus; settings: CD1, dose 50.0 mg/kg, route po, time 17.0 day
MV4-11 [23] = experiment: Cell cycle arrest in human MV4-11 cells assessed as accumulation of cells at G1-phase at […] measured after 24 hrs by propidium iodide staining based flow cytometry (reference value: 61.42%); format: functional; settings: dose 0.625 µM
[24] = Toxicity in human COLO 205 cells xenografted CD1 nu/nu mouse assessed as body weight loss at 25 to 100 mg/kg, po administered once daily via gavage for 21 days measured twice per week during compound dosing; format: organism-based; settings: in vivo, dose 25-100 mg/kg, time 21 day
COLO 205 [25] = settings: Mus musculus, CD1, dose 50.0 mg/kg, route po, time lower 1.0 hrs, time upper […], TDE = time-dependent effect
COLO 205 [26] = settings: Mus musculus, CD1, dose 50.0 mg/kg, route po; remark: listed apart in the source
MV4-11 [27] = experiment: Cell cycle arrest in human MV4-11 cells assessed as accumulation of cells at S-phase at […] measured after 24 hrs by propidium iodide staining based flow cytometry (reference value: 23.35%); format: functional; settings: dose 0.625 µM
MV4-11 [28] = experiment: Cell cycle arrest in human MV4-11 cells assessed as accumulation of cells at G2/M-phase at 1.25 uM measured after 24 hrs by propidium iodide staining based flow cytometry (reference value: 15.23%); format: functional
Mus musculus [29] = species on record: Mus musculus; settings: CD1, dose 50.0 mg/kg, route po, time 17.0 day; remark: listed apart in the source
COLO 205 [30] = settings: Mus musculus, CD1, dose 100.0 mg/kg, route po, time 21.0 day

CCN1CCN(Cc2ccc(Nc3ncc(F)c(-c4cc(F)c5nc(C)n(C(C)C)c5c4)n3)nc2)CC1 [ABEMACICLIB]
Activity (MV4-11 [1]): 77.47%
Activity [2]: Non-Toxic
Activity (MDA-MB-231 [3]): 4.02%
Activity (MDA-MB-231 [4]): 78.86%
inhibition (Mus musculus [5]): inactive
Activity (MV4-11 [6]): 2.68%
Activity [7]: Non-Toxic
Activity [8]: Non-Toxic
inhibition (COLO 205 [9]): inactive
Activity [10]: Non-Toxic
TGI (COLO 205 [11]): Active
Cpss [12]: ~ 400 nM
inhibition (Mus musculus [13]): inactive
inhibition [14]: > 90%
Activity (MV4-11 [15]): 3.9%
TGI (COLO 205 [16]): Active
inhibition at 0.2 µM [17]: > 90%
Activity [18]: Non-Toxic
inhibition [19]: > 90%
Activity (MCF-10A): Toxic
Activity (MV4-11 [20]): 0.54%
TGI (COLO 205 [21]): Active
inhibition (Mus musculus [22]): inactive
Activity (MV4-11 [23]): 94.63%
Activity [24]: Non-Toxic
inhibition (COLO 205 [25]): Tde
inhibition (COLO 205 [26]): inactive
Activity (MV4-11 [27]): 3.6%
Activity (MV4-11 [28]): 1.84%
inhibition (Mus musculus [29]): Active
inhibition (COLO 205 [30]): Active
